# Data taken from the supplement of paper PMC12317010.
# Counter-ions that a name gives are not always drawn.
# Experiment: collision cross section in nitrogen (drift tube, single-field); higher = larger gas-phase ion size
# [1] = ion type: [M+H], ion source: APCI, ion mode: Positive
# [2] = ion type: [M+H], ion source: ESI, ion mode: Positive
# [3] = ion type: [M-H], ion source: ESI, ion mode: Negative
# [4] = ion type: [M+Na], ion source: ESI, ion mode: Positive
# [5] = ion source: ESI, ion mode: Positive, ion type: [M]+ (permanent cation)
# 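Note: chemical standards at 10 µM analysed by drift tube IMS-QTOF MS in about 3.95 torr nitrogen, mean of duplicate injections differing ≤1%, mass error below 10 ppm.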
Compound,collision cross section in nitrogen [1] [Å²],collision cross section in nitrogen [2] [Å²],collision cross section in nitrogen [3] [Å²],collision cross section in nitrogen [4] [Å²],also measured
CC(C)(C)C(O)/C(=C\c1ccc(Cl)cc1Cl)n1cncn1 (stereo not drawn) [Diniconazole],177.9,177.1,–,–,–
CCN(CC)c1c([N+](=O)[O-])cc(C(F)(F)F)c(N)c1[N+](=O)[O-] [Dinitramine],–,–,159.7,–,–
CC(C)(C)c1cc([N+](=O)[O-])cc([N+](=O)[O-])c1O [Dinoterb],–,–,150.1,–,–
CCCCCCCCOC(=O)CCCCCCCCC(=O)OCCCCCCCC [Dioctyl sebacate],–,224.6,–,225.4,–
CNC(=O)Oc1ccccc1C1OCCO1 [Dioxacarb],–,–,–,151.9,–
C=CC(=O)OCC(CO)(COCC(COC(=O)C=C)(COC(=O)C=C)COC(=O)C=C)COC(=O)C=C [Dipentaerythritol pentaacrylate],–,–,–,217.9,–
OCC(CO)(CO)COCC(CO)(CO)CO [Dipentaerythritol],–,154.2,154.6,157.9,–
CCCCCOC(=O)c1ccccc1C(=O)OCCCCC [Dipentyl phthalate],–,–,–,193.4,–
CN(C)C(=O)C(c1ccccc1)c1ccccc1 [Diphenamid],154.1,154.7,–,164.6,–
CN(C)CCOC(c1ccccc1)c1ccccc1 [Diphenhydramine hydrochloride],–,–,–,168.8,–
O=P(O)(Oc1ccccc1)Oc1ccccc1 [Diphenyl phosphate],–,156.5,153.6,–,–
O=C(Oc1ccccc1)c1ccccc1C(=O)Oc1ccccc1 [Diphenyl phthalate],–,–,–,181.1,–
"Cc1cc(C)c(C(=O)P(=O)(c2ccccc2)c2ccccc2)c(C)c1 [Diphenyl(2,4,6-trimethylbenzoyl)phosphine oxide]",–,–,–,191.1,–
c1ccc(Nc2ccccc2)cc1 [Diphenylamine],–,137.8,–,–,"collision cross section in nitrogen (ion type: [M+], ion source: APCI, ion mode: Positive): 133.9 Å²"
O=C1NC(=O)C(c2ccccc2)(c2ccccc2)N1 [Diphenylhydantoin sodium],–,–,160.6,–,–
CC1(C)OC[C@@H]2O[C@@]3(C(=O)O)OC(C)(C)O[C@H]3[C@@H]2O1 [Diprogulic acid],–,–,162.8,160.6,–
"CCCOC(=O)c1ccc(C(=O)OCCC)nc1 [Dipropyl 2,5-pyridinedicarboxylate]",163.2,163.2,–,178.6,–
"CCCOC(=O)c1c(Cl)c(Cl)c(Cl)c(Cl)c1C(=O)OCCC [Dipropyl 3,4,5,6-tetrachlorobenzene-1,2-dicarboxylate]",–,–,–,191.8,–
CCCOC(=O)CCCCC(=O)OCCC [Dipropyl hexanedioate],–,–,–,168.6,–
Cc1c(N(C)CS(=O)(=O)O)c(=O)n(-c2ccccc2)n1C [Dipyrone monohydrate],–,–,173.9,–,–

Compound,collision cross section in nitrogen [1] [Å²],collision cross section in nitrogen [2] [Å²],collision cross section in nitrogen [3] [Å²],collision cross section in nitrogen [4] [Å²],also measured
"O=S(=O)(O)c1ccc2cc(O)c(S(=O)(=O)O)cc2c1 [Disodium 3-hydroxynaphthalene-2,7-disulfonate]",–,–,160.1,–,–
"O=S(=O)(O)c1ccccc1C=Cc1ccc(-c2ccc(C=Cc3ccccc3S(=O)(=O)O)cc2)cc1 [Disodium 4,4'-bis(2-sulfostyryl)biphenyl]",–,–,248.5,–,–
CC(=O)OCCN(CCOC(C)=O)c1ccc(N=Nc2ccc([N+](=O)[O-])cc2C#N)cc1 [Disperse Red 82],213.1,213.3,–,201.3,–
CCOP(=S)(OCC)SCCS(=O)(=O)CC [Disulfoton sulfone],–,–,–,166,–
CCCCCCCCCCCCCOC(=O)c1ccccc1C(=O)OCCCCCCCCCCCCC [Ditridecyl phthalate (mixture of branched chain isomers)],–,–,–,244.3,–
CN(C)C(=O)Nc1ccc(Cl)c(Cl)c1 [Diuron],151.3,150.9,147.5,–,–
CCCCC(CC)COC(=O)CC(C(=O)OCC(CC)CCCC)S(=O)(=O)O (stereo not drawn) [Docusate sodium],–,–,206.1,–,–
CCCCCCCCCCCCOC(C)=O [Dodecyl acetate],–,–,162,–,–
CCCCCCCCCCCCN [Dodecylamine hydrochloride],–,164,–,–,–
CCCCCCCCCCCCc1ccc(S(=O)(=O)O)cc1 [Dodecylbenzenesulfonic acid],–,–,184.8,167.4,–
CCCCCCCCCCCCNC(=N)N [Dodecylguanidine acetate],175.2,–,–,–,–
CCCCCCCCCCCC[N+](C)(C)C [Dodecyltrimethylammonium bromide],–,–,–,–,collision cross section in nitrogen [5]: 175.8 Å²
CCCCCCCCCCCC[N+](C)(C)C [Dodecyltrimethylammonium chloride],–,–,–,–,"collision cross section in nitrogen (ion source: APCI, ion mode: Positive, ion type: [M]+ (permanent cation)): 175.2 Å²; collision cross section in nitrogen [5]: 175.9 Å²"
COc1cccc2c1C(=O)c1c(O)c3c(c(O)c1C2=O)C[C@@](O)(C(=O)CO)C[C@@H]3O[C@H]1C[C@H](N)[C@H](O)[C@H](C)O1 [Doxorubicin hydrochloride],230.5,230,223.1,232.8,–
CN(C)CCOC(C)(c1ccccc1)c1ccccn1 (stereo not drawn) [Doxylamine succinate],162,–,–,–,–
CCOc1ccc(NC(N)=O)cc1 [Dulcin],144.5,144.1,–,149.7,–
O=C(OCC1CCC2OC2C1)C1CCC2OC2C1 (stereo not drawn) [ECC],–,–,–,158,–
Clc1ccc(COC(Cn2ccnc2)c2ccc(Cl)cc2Cl)cc1 (stereo not drawn) [Econazole nitrate],185.8,185.7,–,193.2,–
O=C1Nc2ccc(Cl)cc2[C@@](C#CC2CC2)(C(F)(F)F)O1 [Efavirenz],–,–,168.1,–,–
CN1CCN(c2ccccc2/C=C2\SCCN(c3ccc(Cl)c(Cl)c3)C2=O)CC1 [Elzasonan],204,203.8,–,211.4,–

Compound,collision cross section in nitrogen [1] [Å²],collision cross section in nitrogen [2] [Å²],collision cross section in nitrogen [3] [Å²],collision cross section in nitrogen [4] [Å²],also measured
Cc1cc(O)c2c(c1)C(=O)c1cc(O)cc(O)c1C2=O [Emodin],–,–,154.6,–,–
O=S1(=O)OCC2C(CO1)C1(Cl)C(Cl)=C(Cl)C2(Cl)C1(Cl)Cl (stereo not drawn) [Endosulfan sulfate],–,–,173.3,–,–
O=C(O)C1C2CCC(O2)C1C(=O)O (stereo not drawn) [Endothal],–,–,135.6,140.1,–
O=C1OC2(c3ccccc31)c1cc(Br)c(O)c(Br)c1Oc1c2cc(Br)c(O)c1Br [Eosin],–,–,207.8,–,–
Fc1ccc([C@@]2(Cn3cncn3)O[C@@H]2c2ccccc2Cl)cc1 [Epoxiconazole],176.9,176.6,–,191.3,–
C[C@]12CC[C@H]3C(=CCc4cc(O)ccc43)[C@@H]1CCC2=O [Equilin],–,–,172.2,–,–
CC[C@H]1OC(=O)[C@H](C)[C@@H](O[C@H]2C[C@@](C)(OC)[C@@H](O)[C@H](C)O2)[C@H](C)[C@@H](O[C@@H]2O[C@H](C)C[C@H](N(C)C)[C@H]2O)[C@](C)(O)C[C@@H](C)C(=O)[C@H](C)[C@@H](O)[C@]1(C)O [Erythromycin],258.5,257.1,–,262.9,–
C[C@]12CC[C@@H]3c4ccc(O)cc4CC[C@H]3[C@@H]1CC[C@@H]2OC(=O)CCC1CCCC1 [Estradiol cypionate],–,–,220.4,–,–
C[C@]12CC[C@@H]3c4ccc(O)cc4CC[C@H]3[C@@H]1C[C@@H](O)[C@@H]2O [Estriol],–,–,178.1,–,–
CCC1COC(Cn2cncn2)(c2ccc(Cl)cc2Cl)O1 (stereo not drawn) [Etaconazole],175.4,174.1,–,189.3,–
CCOc1nc(NC)nc(NC(=O)NS(=O)(=O)c2ccccc2C(=O)OC)n1 [Ethametsulfuron-methyl],–,197.6,196,–,–
CCSCc1ccccc1OC(=O)NC [Ethiofencarb],–,–,–,153.7,–
CCOP(=S)(OCC)SCSP(=S)(OCC)OCC [Ethion],–,–,–,182.3,–
CCc1cc(C(N)=S)ccn1 [Ethionamide],137.5,–,135.2,–,–
CCCCc1c(C)nc(NCC)nc1O [Ethirimol],152.1,152,155.2,167.3,–
C#C[C@]1(O)CC[C@H]2[C@@H]3CCC4=CC(=O)CC[C@]4(C)[C@H]3CC[C@@]21C [Ethisterone],180.2,–,–,204.6,–
CCCSP(=O)(OCC)SCCC [Ethoprop],151.3,151.5,–,169.5,–
CCOc1ccc2c(c1)C(C)=CC(C)(C)N2 [Ethoxyquin],153.1,153.2,–,–,–
"CCOC(=O)c1sc(N)nc1C(F)(F)F [Ethyl 2-amino-4-(trifluoromethyl)-1,3-thiazole-5-carboxylate]",155.3,146.4,140.9,–,–
